Measured values as given in patent publication US12637687B2, “Nucleic acid molecules, polypeptides having epoxy group-removing catalytic activity and use thereof” (SHANDONG AGRICULTURAL UNIVERSITY, priority 2020, dated 2026).

B1: ThFhb7: de-epoxidase from Thinopyrum ponticum; polypeptide having epoxy group-removing catalytic activity, amino acid sequence SEQ ID NO: 36, gene SEQ ID NO: 1 (protein, listed as Elytrigia ponticum)
chain: MATSASTSTPIIPTAIAGAPPVAGTCCAVAPTLSALALAPLAVPTTTTTVLMPAISSVAASLAVPACALPAAGSAPATLPIIHAPATASLVGASPAIAATLGATTPASGAGALPPPGLLATAVGAAMPGLLIPLSGIAASPGLAATAAPASAVAAAPTAHVGLMVHGLPLAPATAAVTLAGPVAAAGLSSTAALGMVGGAAALMMGSLAAMLGALAALPALAASGPPLLGGAATTAAMIVGGTLAMMAATLPVSGTGGAAACHGAIPGGLHAALALTAGVL

Columns and labels:
ThFhb7 [1] = test system: ThFhb7; set-up: species or system Thinopyrum ponticum; settings: in vivo
[2] = test system: human embryonic kidney cell 293-derived line (293T); test: Cytotoxicity assay by CCK8 method; settings: 48 h treatment, CCK-8, OD450
[3] = test system: pancreatic cancer cell line (PATU8988); test: Cytotoxicity assay by CCK8 method; settings: PATU8988, 48 h treatment, CCK-8, OD450
[4] = test system: normal human esophageal epithelial cells (HEECs); test: Cytotoxicity assay by CCK8 method; settings: 48 h treatment, CCK-8, OD450
ThFhb7 [5] = type: cell-based, Thinopyrum ponticum
Pichia pastoris = test: DON tolerance of transgenic Pichia pastoris; type: cell-based; settings: YPDA media comprising 400 μM DON, 5 days
F. pseudograminearum [6] = settings: in vivo
[7] = In vitro enzymatic reaction system of ThFhb7 polypeptide (DON + GSH, LC-HRMS); type: biochemical
Protocol: The optimal conditions for the in vitro enzymatic reaction system of ThFhb7 polypeptide were established by gradient experiments of three different factors affecting the enzymatic reaction: • (1) the gradient of reaction enzyme amounts: 1 μg, 5 μg, 10 μg, 25 μg, and 50 μg; • (2) the pH gradient set with various buffers: ranging from 3.0 to 10.0, disodium hydrogen phosphate-citric acid buffer (pH=3.0, 4.0, 5.0), disodium hydrogen phosphate-potassium dihydrogen phosphate buffer (pH=6.0, 7.0), and Tris-phosphate buffer (pH=8.0, 9.0, 10.0); and • (3) the gradient of reaction temperatures: 4° C., 12° C., 15° C., 20° C., 25° C., 30° C., 37° C., 45° C., and 50° C.
The reaction was performed in a phosphate buffer (PBS) (pH=7.0), at 25° C. for 12 h, and samples were taken at 0 h, 0.5 h, 1 h, 3 h, and 6 h respectively for LC-HRMS analysis; through the area results of first-level scanning of LC-HRMS, the changes in the amounts of the two substances, DON as the reaction substrate and the GSH adduct as the reaction product, were obtained with proceeding of reaction, so as to obtain the optimal enzyme amount for the reaction, as shown in FIGS. 14A and 14B. […]

F. asiaticum = settings: in vivo
F. pseudograminearum [8] = settings: in vivo; remark: listed apart in the source

Molecule | amounts decreased as compared with the control (ThFhb7 [1]) | toxin significantly reduced as compared with wheat without ThFhb7 (ThFhb7 [1]) | cell viability [2] | cell viability [3] | cell viability [4] | DON-GSH adduct in DON-treated yeast expressing the active polypeptide (ThFhb7 [5]) | growth viability vs transgenic yeast with the blank vector (Pichia pastoris) | diseased spot area on leaves vs KN199 (F. pseudograminearum [6]) | catalysis of vomitoxin into a glutathione adduct in vitro ([7]; DON 1 mg, GSH in PBS, 20° C., 24 h) | enzyme activity above 37° C. (DON-GSH cannot be detected) ([7]; above 37° C., pH 7.0, 25 μg enzyme) | diseased spot area on leaves vs KN199 (F. asiaticum) | death rate of transgenic plants vs wild type (F. pseudograminearum [8]) | degree of disease at the stem base vs control (F. pseudograminearum [8])
CC(=O)O[C@@H]1C[C@]2(C)[C@@]3(CO)[C@H](O)C(=O)C(C)=C[C@H]3O[C@H]1[C@@]21CO1 [3-ADON, 3-acetyl-deoxynivalenol] | about ⅔ | about ⅓ |  |  |  |  |  |  |  |  |  |  | 
CC1=C[C@H]2O[C@@H]3[C@H](O)C[C@](C)([C@@]2(CO)[C@H](O)C1=O)[C@]31CO1 [DON, deoxynivalenol] | about ⅔ | about ⅓ | decreases sharply | decreases sharply | decreases sharply | detected |  |  |  |  |  |  | 
B1 |  |  |  |  |  |  | significantly higher | significantly reduced | efficiently catalyze vomitoxin into a glutathione adduct | basically lost its activity | significantly reduced | significantly lower | less severe
